The values below come from patent publication US10329289B2, “6,7-dihydro-5H-pyrrolo[3,4-B]pyridin-5-one allosteric modulators of the M4 muscarinic acetylcholine receptor” (Merck Sharp & Dohme Corp., priority 2015, dated 2019).

SMILES strings stand for the structures.

This assay has as its target T1, human M4 muscarinic acetylcholine receptor (Homo sapiens, UniProt P08173).
T1 construct: expressed in transfected cells; host or cells: CHO-K1
T1 sequence (P08173 1-479): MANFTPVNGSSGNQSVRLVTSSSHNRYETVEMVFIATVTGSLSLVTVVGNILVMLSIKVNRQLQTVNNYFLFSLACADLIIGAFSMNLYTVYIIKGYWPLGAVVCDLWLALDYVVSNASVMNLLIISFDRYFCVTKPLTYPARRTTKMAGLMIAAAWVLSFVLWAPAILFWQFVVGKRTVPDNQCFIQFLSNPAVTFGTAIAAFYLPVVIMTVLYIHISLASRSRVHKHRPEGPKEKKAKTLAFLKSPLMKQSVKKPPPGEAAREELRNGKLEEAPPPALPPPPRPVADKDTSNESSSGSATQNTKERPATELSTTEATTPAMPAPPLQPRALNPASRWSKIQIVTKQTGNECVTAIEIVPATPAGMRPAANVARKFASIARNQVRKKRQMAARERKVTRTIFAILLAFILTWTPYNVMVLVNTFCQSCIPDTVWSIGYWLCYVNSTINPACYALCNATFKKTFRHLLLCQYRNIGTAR
In words: human FLIPR-based M4 PAM assay (Ca2+ mobilization, CHO-K1 cells with human M4 receptor and Gαqi5). It counts as cell-based. The following applies: acetylcholine at 20% of maximum response, read-out: M4 PAM IP. In a few lines:
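Calcium-mobilization (FLIPR) readout in dye-loaded CHO-K1 cells co-expressing human M4 receptor and Gαqi5. Potentiation measured against acetylcholine at a concentration giving 20% of maximal response, with an optional 70% addition; the reported value is the curve inflection point from a 4-parameter logistic fit.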
(In general: Calcium flux is commonly read through the fluorescence of an indicator in the cells.)
On to `COCCOCc1ccc(OC2CCN(c3nc4c(cc3C)C(=O)NC4)CC2)cn1` [Example 204, 2-(4-((6-((2-methoxyethoxy)methyl)pyridin-3-yl)oxy)piperidin-1-yl)-3-methyl-6,7-dihydro-5H-pyrrolo[3,4-b]pyridin-5-one], for which the EC50 turned out to be 1110 nM.
The same measure for `COCCOCc1ccc(OC2CCN(c3nc4c(cc3C)C(=O)NC4)CC2)cc1` [Example 205, 2-(4-(4-((2-methoxyethoxy)methyl)phenoxy)piperidin-1-yl)-3-methyl-6,7-dihydro-5H-pyrrolo[3,4-b]pyridin-5-one]: 238 nM.
To `Cc1cc2c(nc1N1CCC(OCc3ccccn3)CC1)CNC2=O` [Example 205A, 3-methyl-2-(4-(pyridin-2-ylmethoxy)piperidin-1-yl)-6,7-dihydro-5H-pyrrolo[3,4-b]pyridin-5-one] belongs 5630 nM; to `Cc1cc2c(nc1N1CCC(Oc3cnc4[nH]ncc4c3)CC1)CNC2=O` [Example 206, 2-(4-((1H-pyrazolo[3,4-b]pyridin-5-yl)oxy)piperidin-1-pyrazolo[3,4-b]yl)-3-methyl-6,7-dihydro-5H-pyrrolo[3,4-b]pyridin-5-one], 589 nM; to `Cc1cc2c(nc1N1CCC(Oc3cnn(C)c3)CC1)CNC2=O` [Example 206A, 3-methyl-2-(4-((1-methyl-1H-pyrazol-4-yl)oxy)piperidin-1-yl)-6,7-dihydro-5H-pyrrolo[3,4-b]pyridin-5-one], 259 nM.
The same measure for `Cc1cc2c(nc1N1CCC(Oc3ccc4c(c3)CCOC4)CC1)CNC2=O` [Example 207, 2-(4-(isochroman-6-yloxy)piperidin-1-yl)-3-methyl-6,7-dihydro-5H-pyrrolo[3,4-b]pyridin-5-one]: 30 nM; for `Cc1cc2c(nc1N1CCC(Oc3ccc4c(c3)OC(F)(F)O4)CC1)CNC2=O` [Example 208, 2-(4-((2,2-difluorobenzo[d][1,3]dioxol-5-yl)oxy)piperidin-1-yl)-3-methyl-6,7-dihydro-5H-pyrrolo[3,4-b]pyridin-5-one]: 329 nM.
For `Cc1cc2c(nc1N1CCC(Oc3ccc4c(c3)CS(=O)(=O)C4)CC1)CNC2=O` [Example 208A, 2-(4-((2,2-dioxido-1,3-dihydrobenzo[c]thio-phen-5-yl)oxy)piperidin-1-yl)-3-methyl-6,7-dihydro-5H-pyrrolo[3,4-b]pyridin-5-one], the EC50 was 123 nM.
Take `Cc1cc2c(nc1N1CCC(Oc3ccc4c(c3)nc(C)n4C)CC1)CNC2=O` [Example 209, 2-(4-((1,2-dimethyl-1H-benzo[d]imidazol-5-yl)oxy)piperidin-1-yl)-3-methyl-6,7-dihydro-5H-pyrrolo[3,4-b]pyridin-5-one]: the EC50 stood at 2650 nM.
`Cc1cc2c(nc1N1CCC(Oc3ccc4nc(C)n(C)c4c3)CC1)CNC2=O` [Example 210, 2-(4-((1,2-dimethyl-1H-benzo[d]imidazol-6-yl)oxy)piperidin-1-yl)-3-methyl-6,7-dihydro-5H-pyrrolo[3,4-b]pyridin-5-one]: the EC50 was 2580 nM.
The same measure for `COC(=O)Cn1ncc2cc(OC3CCN(c4nc5c(cc4C)C(=O)NC5)CC3)ccc21` [Example 211, methyl 2-(5-((1-(3-methyl-5-oxo-6,7-dihydro-5H-pyrrolo[3,4-b]pyridin-2-yl)piperidin-4-yl)oxy)-1H-indazol-1-yl)acetate]: 216 nM; for `COC(=O)c1c(C)c(N2CCC(Oc3ccc4c(c3)COC4)CC2)nc2c1C(=O)NC2` [Example 212, methyl 2-(4-((1,3-dihydro-2-benzofuran-5-yl)oxy)piperidin-1-yl)-3-methyl-5-oxo-6,7-dihydro-5H-pyrrolo[3,4-b]pyridine-4-carboxylate]: 1830 nM.
The same measure for `CCc1cc2c(nc1N1CCC(Oc3cnc4c(c3)COC4)CC1)CNC2=O` [Example 212A, 2-(4-((5,7-dihydrofuro[3,4-b]pyridin-3-yl)oxy)piperidin-1-yl)-3-ethyl-6,7-dihydro-5H-pyrrolo[3,4-b]pyridin-5-one]: 116 nM; for `CCc1cc2c(nc1N1CCC(Oc3ccc4c(c3)COC4)CC1)CNC2=O` [Example 213, 2-(4-((1,3-dihydro-2-benzofuran-5-yl)oxy)piperidin-1-yl)-3-ethyl-6,7-dihydro-5H-pyrrolo[3,4-b]pyridin-5-one]: 61 nM; for `CCc1cc2c(nc1N1CC[C@@H](Oc3cnc4c(c3)COC4)[C@H](F)C1)CNC2=O` [Example 213A, 2-((3R,4R)-4-((5,7-dihydrofuro[3,4-b]pyridin-3-yl)oxy)-3-fluoropiperidin-1-yl)-3-ethyl-6,7-dihydro-5H-pyrrolo[3,4-b]pyridin-5-one]: 126 nM.
To `CCc1cc2c(nc1N1CC[C@@H](Oc3ccc4c(c3)COC4)[C@@H](F)C1)CNC2=O` [Example 214, 2-((3S,4R)-4-((1,3-dihydro-2-benzofuran-5-yl)oxy)-3-fluoropiperidin-1-yl)-3-ethyl-6,7-dihydro-5H-pyrrolo[3,4-b]pyridin-5-one] belongs 93 nM; to `Cc1cc2c(nc1N1CCC(Oc3cnc4c(c3)OCC4)CC1)CNC2=O` [Example 216A, 2-(4-((2,3-dihydrofuro[3,2-b]pyridin-6-yl)oxy)piperidin-1-yl)-3-methyl-6,7-dihydro-5H-pyrrolo[3,4-b]pyridin-5-one], 288 nM.
As to `CCc1cc2c(nc1N1CC[C@@H](Oc3ccc4c(c3)COC4)[C@H](F)C1)CNC2=O` [Example 217, 2-((3R,4R)-4-((1,3-dihydro-2-benzofuran-5-yl)oxy)-3-fluoropiperidin-1-yl)-3-ethyl-6,7-dihydro-5H-pyrrolo[3,4-b]pyridin-5-one], the EC50 stood at 42 nM.
To `COc1ccc(OC2CCN(c3nc4c(c(C)c3C)C(=O)NC4)CC2)cn1` [Example 218, 2-(4-((6-Methoxypyridin-3-yl)oxy)piperidin-1-yl)-3,4-dimethyl-6,7-dihydro-5H-pyrrolo[3,4-b]pyridin-5-one] belongs 38 nM; to `Cc1c(N2CCC(OCC3(C)CC3)CC2)nc2c(c1C)C(=O)NC2` [Example 219, 3,4-dimethyl-2-(4-((1-methylcyclopropyl)methoxy)piperidin-1-yl)-6,7-dihydro-5H-pyrrolo[3,4-b]pyridin-5-one], 25 nM.
Regarding `Cc1c(N2CC[C@H](OCC3(C)CC3)[C@@H](F)C2)nc2c(c1C)C(=O)NC2` [Example 219A, 2-((3S,4S)-3-fluoro-4-((1-methylcyclopropyl)methoxy)piperidin-1-yl)-3,4-dimethyl-6,7-dihydro-5H-pyrrolo[3,4-b]pyridin-5-one], the EC50 is 46 nM.
To `COCCOc1ccc(OC2CCN(c3nc4c(c(C)c3C)C(=O)NC4)CC2)cn1` [Example 220, 2-(4-((6-(2-methoxyethoxy)pyridin-3-yl)oxy)piperidin-1-yl)-3,4-dimethyl-6,7-dihydro-5H-pyrrolo[3,4-b]pyridin-5-one] belongs 109 nM.
For `Cc1cncc(OC2CCN(c3nc4c(c(C)c3C)C(=O)NC4)CC2)c1` [Example 220A, 3,4-dimethyl-2-(4-((5-methylpyridin-3-yl)oxy)piperidin-1-yl)-6,7-dihydro-5H-pyrrolo[3,4-b]pyridin-5-one], the EC50 stood at 83 nM.
To `COc1ccc(OC2CCN(c3nc4c(cc3C3CC3)C(=O)NC4)CC2)cn1` [Example 221, 3-cyclopropyl-2-(4-((6-methoxypyridin-3-yl)oxy)piperidin-1-yl)-6,7-dihydro-5H-pyrrolo[3,4-b]pyridin-5-one] belongs 1080 nM.
To `C=Cc1cc2c(nc1N1CCC(Oc3ccc(OC)nc3)CC1)CNC2=O` [Example 222, 2-(4-((6-methoxypyridin-3-yl)oxy)piperidin-1-yl)-3-vinyl-6,7-dihydro-5H-pyrrolo[3,4-b]pyridin-5-one] belongs 50 nM.
To `COc1ccc(OC2CCN(c3nc4c(cc3C#N)C(=O)NC4)CC2)cn1` [Example 223, 2-(4-((6-methoxypyridin-3-yl)oxy)piperidin-1-yl)-5-oxo-6,7-dihydro-5H-pyrrolo[3,4-b]pyridine-3-carbonitrile] belongs 344 nM; to `Cc1cc(N2CCC(OCC3(C)CC3)CC2)nc2c1C(=O)NC2` [Example 224, 4-methyl-2-(4-((1-methylcyclopropyl)methoxy)piperidin-1-yl)-6,7-dihydro-5H-pyrrolo[3,4-b]pyridin-5-one], 3520 nM; to `Cc1c(N2CC[C@@H](Oc3ccc4c(c3)COC4)[C@@H](F)C2)nc2c(c1C)C(=O)NC2` [Example 225, 2-((3S,4R)-4-((1,3-dihydro-2-benzofuran-5-yl)oxy)-3-fluoropiperidin-1-yl)-3,4-dimethyl-6,7-dihydro-5H-pyrrolo[3,4-b]pyridin-5-one], 19 nM.
For `O=C1NCc2nc(N3CCC(Oc4ccc5c(c4)COC5)CC3)c(Br)cc21` [Example 226, 3-bromo-2-(4-((1,3-dihydro-2-benzofuran-5-yl)oxy)piperidin-1-yl)-6,7-dihydro-5H-pyrrolo[3,4-b]pyridin-5-one], the EC50 came to 136 nM.
The same measure for `Cc1c(N2CCC(Oc3cnc4c(c3)COC4)CC2)nc2c(c1C)C(=O)NC2` [Example 227, 2-(4-((5,7-dihydrofuro[3,4-b]pyridin-3-yl)oxy)piperidin-1-yl)-3,4-dimethyl-6,7-dihydro-5H-pyrrolo[3,4-b]pyridin-5-one]: 435 nM.
